# According to article PMC8662647, “Two Functional Epithelial Sodium Channel Isoforms Are Present in Rodents despite Pronounced Evolutionary Pseudogenization and Exon Fusion” (Molecular Biology and Evolution, 2021):
# Legend:
# guinea pig αβγ-ENaC = biological target: T1, guinea pig αβγ-ENaC (Cavia porcellus, UniProt B8QP44+H0UT09+H0VNV9); test: two-electrode voltage clamp, Xenopus oocytes, concentration-response; format: cell-based
# T1 construct: gene SCNN1A; heterotrimer in Xenopus laevis oocytes; printed GenBank ids are 5'RACE products
# T1 sequence (B8QP44 1-656): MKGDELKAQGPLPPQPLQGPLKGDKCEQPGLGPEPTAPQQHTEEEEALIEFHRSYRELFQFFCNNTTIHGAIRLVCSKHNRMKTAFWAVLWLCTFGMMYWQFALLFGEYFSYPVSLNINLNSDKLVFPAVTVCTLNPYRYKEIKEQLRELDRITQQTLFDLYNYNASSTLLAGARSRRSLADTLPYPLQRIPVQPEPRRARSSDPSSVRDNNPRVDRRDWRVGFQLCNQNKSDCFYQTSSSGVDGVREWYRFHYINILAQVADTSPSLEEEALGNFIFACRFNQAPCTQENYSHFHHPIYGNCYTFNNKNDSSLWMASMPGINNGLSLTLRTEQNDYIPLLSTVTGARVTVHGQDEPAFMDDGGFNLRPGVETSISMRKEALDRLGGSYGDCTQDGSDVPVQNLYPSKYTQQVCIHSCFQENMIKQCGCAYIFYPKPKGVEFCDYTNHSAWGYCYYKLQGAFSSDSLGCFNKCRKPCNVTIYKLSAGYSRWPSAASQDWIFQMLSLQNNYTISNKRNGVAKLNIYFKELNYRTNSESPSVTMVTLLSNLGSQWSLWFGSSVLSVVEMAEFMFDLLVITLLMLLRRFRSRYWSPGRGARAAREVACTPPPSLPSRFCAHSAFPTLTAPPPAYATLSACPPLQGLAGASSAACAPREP
# T1 sequence (H0VNV9 1-640): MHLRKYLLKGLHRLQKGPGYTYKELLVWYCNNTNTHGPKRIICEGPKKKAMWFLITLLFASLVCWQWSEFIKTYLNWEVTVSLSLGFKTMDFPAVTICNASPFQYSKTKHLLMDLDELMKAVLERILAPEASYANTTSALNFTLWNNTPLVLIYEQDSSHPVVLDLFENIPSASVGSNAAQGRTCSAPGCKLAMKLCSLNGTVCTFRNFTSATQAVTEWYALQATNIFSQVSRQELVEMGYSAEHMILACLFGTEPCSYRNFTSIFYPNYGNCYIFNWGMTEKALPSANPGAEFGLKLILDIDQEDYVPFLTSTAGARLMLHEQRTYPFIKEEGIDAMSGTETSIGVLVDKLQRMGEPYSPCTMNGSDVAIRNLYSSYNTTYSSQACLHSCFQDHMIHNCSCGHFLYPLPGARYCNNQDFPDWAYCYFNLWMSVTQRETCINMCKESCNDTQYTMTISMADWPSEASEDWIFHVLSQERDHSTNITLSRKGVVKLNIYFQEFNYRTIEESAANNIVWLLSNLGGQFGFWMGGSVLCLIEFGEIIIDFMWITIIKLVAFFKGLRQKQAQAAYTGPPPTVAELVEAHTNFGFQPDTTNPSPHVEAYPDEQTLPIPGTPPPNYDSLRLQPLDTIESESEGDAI
# T1 sequence (H0UT09 1-653): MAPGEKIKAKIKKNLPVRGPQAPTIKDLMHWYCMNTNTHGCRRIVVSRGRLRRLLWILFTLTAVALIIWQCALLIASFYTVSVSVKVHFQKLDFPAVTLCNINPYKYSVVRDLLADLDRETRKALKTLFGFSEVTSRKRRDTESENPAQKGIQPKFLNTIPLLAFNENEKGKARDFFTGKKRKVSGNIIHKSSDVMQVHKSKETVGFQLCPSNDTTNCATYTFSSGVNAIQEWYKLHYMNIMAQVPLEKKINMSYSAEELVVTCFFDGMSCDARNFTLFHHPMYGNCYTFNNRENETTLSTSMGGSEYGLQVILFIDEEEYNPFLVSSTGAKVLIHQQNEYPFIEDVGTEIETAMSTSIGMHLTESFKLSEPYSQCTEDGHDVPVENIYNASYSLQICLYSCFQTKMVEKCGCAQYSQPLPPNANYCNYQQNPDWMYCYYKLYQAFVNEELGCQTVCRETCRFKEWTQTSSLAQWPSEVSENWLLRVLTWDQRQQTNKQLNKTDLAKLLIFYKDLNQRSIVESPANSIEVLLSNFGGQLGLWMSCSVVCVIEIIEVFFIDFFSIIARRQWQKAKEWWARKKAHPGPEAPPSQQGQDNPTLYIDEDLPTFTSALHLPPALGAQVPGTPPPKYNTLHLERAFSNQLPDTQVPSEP
# guinea pig δβγ-ENaC = biological target: T2, guinea pig δβγ-ENaC (Cavia porcellus, UniProt H0UT09+H0VJS1+H0VNV9); test: as above; format: cell-based; conditions: channel block; -60 mV; ORS 90 mM NaCl, pH 7.4, room temperature
# T2 construct: gene Scnn1d; heterotrimer in Xenopus laevis oocytes; δ with fused exons 11/12
# T2 sequence (H0VJS1 1-618): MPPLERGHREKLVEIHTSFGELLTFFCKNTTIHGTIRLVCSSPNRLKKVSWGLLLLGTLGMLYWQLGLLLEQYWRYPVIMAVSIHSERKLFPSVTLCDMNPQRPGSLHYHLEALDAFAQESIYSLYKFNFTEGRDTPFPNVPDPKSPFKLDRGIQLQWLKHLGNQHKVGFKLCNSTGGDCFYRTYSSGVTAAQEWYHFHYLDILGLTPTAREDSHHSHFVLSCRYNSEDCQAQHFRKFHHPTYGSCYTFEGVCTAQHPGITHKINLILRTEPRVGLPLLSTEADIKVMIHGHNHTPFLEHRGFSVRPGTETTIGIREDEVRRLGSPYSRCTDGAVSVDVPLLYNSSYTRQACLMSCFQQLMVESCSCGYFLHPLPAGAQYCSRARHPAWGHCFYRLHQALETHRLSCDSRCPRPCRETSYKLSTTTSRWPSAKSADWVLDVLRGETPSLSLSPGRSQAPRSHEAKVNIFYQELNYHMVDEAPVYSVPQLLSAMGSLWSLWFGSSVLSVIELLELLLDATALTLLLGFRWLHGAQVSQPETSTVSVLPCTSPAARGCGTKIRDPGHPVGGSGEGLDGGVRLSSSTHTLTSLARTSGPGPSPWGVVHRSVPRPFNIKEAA
# T2 sequence (H0VNV9 1-640): T1 sequence (H0VNV9 1-640)
# T2 sequence (H0UT09 1-653): T1 sequence (H0UT09 1-653)
structure (smiles),measurement,setting,value
N=C(N)NC(=O)c1nc(Cl)c(N)nc1N [amiloride],IC50,guinea pig αβγ-ENaC,150 ± 20 nM
same,IC50,guinea pig δβγ-ENaC,240 ± 50 nM
